{"source": "ChEMBL document CHEMBL1201862", "about": "“PubChem BioAssay data set” (2004)", "key": {"[1]": {"target": "T1, Replicative DNA helicase DnaB (Mycobacterium tuberculosis, UniProt P9WMR3)", "T1 sequence (P9WMR3 whole entry)": "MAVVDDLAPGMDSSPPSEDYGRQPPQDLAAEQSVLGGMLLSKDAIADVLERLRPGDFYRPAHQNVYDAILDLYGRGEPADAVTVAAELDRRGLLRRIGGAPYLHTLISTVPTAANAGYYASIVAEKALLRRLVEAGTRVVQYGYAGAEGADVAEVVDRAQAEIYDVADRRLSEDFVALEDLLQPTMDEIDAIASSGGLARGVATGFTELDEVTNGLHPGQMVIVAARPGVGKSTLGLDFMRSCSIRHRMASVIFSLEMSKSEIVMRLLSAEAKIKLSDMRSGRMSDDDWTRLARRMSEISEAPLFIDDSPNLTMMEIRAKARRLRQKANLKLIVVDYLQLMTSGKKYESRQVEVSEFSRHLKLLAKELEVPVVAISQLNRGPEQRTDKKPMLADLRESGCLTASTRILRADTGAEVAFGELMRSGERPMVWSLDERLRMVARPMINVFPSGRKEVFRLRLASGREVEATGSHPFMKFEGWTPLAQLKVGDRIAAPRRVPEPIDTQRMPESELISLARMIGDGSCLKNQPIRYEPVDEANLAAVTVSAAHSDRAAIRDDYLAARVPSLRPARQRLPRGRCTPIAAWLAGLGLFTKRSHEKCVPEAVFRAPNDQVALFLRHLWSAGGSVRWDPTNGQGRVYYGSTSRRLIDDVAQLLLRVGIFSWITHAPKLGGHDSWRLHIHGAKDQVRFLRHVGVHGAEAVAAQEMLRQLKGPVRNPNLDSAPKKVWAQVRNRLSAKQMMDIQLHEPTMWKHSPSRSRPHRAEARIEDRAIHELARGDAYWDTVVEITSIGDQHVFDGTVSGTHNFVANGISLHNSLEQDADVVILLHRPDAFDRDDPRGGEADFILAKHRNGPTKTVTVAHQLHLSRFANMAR", "test": "DnaB intein splicing inhibitors, dose response, biochemical, cell-free fluorescence (AID 449749)", "assay_type": "functional"}, "[2]": {"test": "Intein inhibitors as potential Tuberculosis drugs, a cytotoxicity screen. [Related pubchem assays (depositor defined):AID2221, AID2223, AID434968, AID435010, AID449749, AID449750, AID489010]", "assay_type": "functional"}, "Paired box protein Pax-8": {"target": "Paired box protein Pax-8 (Homo sapiens, UniProt Q06710)", "test": "inhibitors of PAX8-driven TPO luciferase reporter, dose response, RMG-I cells, cherry-pick (AID 687027);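 note: luciferase reporter driven by Pax8 target thyroperoxidase promoter measured by SteadyGlo luminescence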", "assay_type": "functional, cell-based"}, "Hexokinase HKDC1": {"target": "T2, Hexokinase HKDC1 (Homo sapiens, UniProt Q2TB90)", "T2 sequence (Q2TB90 whole entry)": "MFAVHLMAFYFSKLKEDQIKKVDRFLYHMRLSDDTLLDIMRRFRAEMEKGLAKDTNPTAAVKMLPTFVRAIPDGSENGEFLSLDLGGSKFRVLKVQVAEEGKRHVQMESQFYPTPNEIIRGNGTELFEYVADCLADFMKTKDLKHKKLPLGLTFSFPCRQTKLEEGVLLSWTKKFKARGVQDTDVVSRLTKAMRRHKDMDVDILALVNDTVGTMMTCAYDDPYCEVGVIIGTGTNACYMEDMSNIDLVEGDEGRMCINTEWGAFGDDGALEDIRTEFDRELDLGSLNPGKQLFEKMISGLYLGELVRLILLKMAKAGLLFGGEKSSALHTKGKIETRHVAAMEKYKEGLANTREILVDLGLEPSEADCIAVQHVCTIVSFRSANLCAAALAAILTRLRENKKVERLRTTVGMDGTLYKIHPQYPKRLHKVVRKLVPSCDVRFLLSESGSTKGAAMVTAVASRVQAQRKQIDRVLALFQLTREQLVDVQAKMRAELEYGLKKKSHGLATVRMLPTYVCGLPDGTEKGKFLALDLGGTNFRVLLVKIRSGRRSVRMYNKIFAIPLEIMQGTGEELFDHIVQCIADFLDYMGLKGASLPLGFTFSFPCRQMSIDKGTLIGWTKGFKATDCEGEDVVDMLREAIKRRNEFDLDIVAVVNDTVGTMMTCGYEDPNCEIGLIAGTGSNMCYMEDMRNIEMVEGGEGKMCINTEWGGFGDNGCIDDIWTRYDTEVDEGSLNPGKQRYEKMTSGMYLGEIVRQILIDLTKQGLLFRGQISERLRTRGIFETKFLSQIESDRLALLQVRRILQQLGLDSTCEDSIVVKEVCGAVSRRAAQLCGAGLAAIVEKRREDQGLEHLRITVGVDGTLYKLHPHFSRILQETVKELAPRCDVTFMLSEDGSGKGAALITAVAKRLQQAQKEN", "test": "HKDC1 hexokinase inhibitors, dose response, biochemical, W721R variant (AID 504729)", "assay_type": "functional"}, "[3]": {"test": "inhibitors of intracellular T. cruzi replication, confirmation, NIH3T3 host cells, beta-gal luminescence (AID 2044);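 note: intracellular parasites grown in NIH/3T3 mouse fibroblasts as host cells; luminescent beta-galactosidase reporter signal from transgenic T. cruzi replicating inside host cells; inhibitors lower the luminescence signal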", "assay_type": "functional, cell-based"}, "[4]": {"test": "NIH-3T3 fibroblast cytotoxicity, dose response, cytotoxicity control, cell-based, fluorescence, Alamar Blue, secondary assay (AID 2327);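 note: NIH-3T3 mouse fibroblasts cultured with fluconazole at 8 µg/mL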", "assay_type": "functional"}, "[5]": {"test": "HepG2 cell cytotoxicity, dose response, cytotoxicity control for Shn3 inhibitor project, CellTiter-Glo, cherry-picked (AID 624134)", "assay_type": "functional, cell-based"}, "[6]": {"test": "Counterscreen for AddAB inhibitors: absorbance-based bacterial cell-based high throughput dose response assay for inhibitors of bacterial viability. [Related pubchem assays (depositor defined):AID435030, AID449728, AID449731, AID488942, AID488955, AID488956]", "assay_type": "functional"}, "Nonstructural protein 1": {"target": "Nonstructural protein 1 (Influenza A virus, UniProt Q194T2)", "sequence (Q194T2 whole entry)": "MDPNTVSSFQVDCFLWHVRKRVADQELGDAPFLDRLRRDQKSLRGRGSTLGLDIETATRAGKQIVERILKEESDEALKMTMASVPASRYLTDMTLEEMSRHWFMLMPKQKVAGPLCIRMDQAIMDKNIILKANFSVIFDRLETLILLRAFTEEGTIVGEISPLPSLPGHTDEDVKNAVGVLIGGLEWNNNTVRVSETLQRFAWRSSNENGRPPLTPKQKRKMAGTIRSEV", "assay_type": "functional, Influenza A virus (A/California/07/2009(H1N1))"}, "[7]": {"target": "Rho-associated protein kinase 1 (Homo sapiens, UniProt Q13464)", "assay_type": "functional"}, "[8]": {"target": "Inhibitor of nuclear factor kappa-B kinase subunit epsilon (Homo sapiens, UniProt Q14164)", "test": "Navigating the Kinome. Panel member name: IKBKE", "assay_type": "functional"}, "[9]": {"target": "Protein kinase C theta type (Homo sapiens, UniProt Q04759)", "sequence (Q04759 whole entry)": "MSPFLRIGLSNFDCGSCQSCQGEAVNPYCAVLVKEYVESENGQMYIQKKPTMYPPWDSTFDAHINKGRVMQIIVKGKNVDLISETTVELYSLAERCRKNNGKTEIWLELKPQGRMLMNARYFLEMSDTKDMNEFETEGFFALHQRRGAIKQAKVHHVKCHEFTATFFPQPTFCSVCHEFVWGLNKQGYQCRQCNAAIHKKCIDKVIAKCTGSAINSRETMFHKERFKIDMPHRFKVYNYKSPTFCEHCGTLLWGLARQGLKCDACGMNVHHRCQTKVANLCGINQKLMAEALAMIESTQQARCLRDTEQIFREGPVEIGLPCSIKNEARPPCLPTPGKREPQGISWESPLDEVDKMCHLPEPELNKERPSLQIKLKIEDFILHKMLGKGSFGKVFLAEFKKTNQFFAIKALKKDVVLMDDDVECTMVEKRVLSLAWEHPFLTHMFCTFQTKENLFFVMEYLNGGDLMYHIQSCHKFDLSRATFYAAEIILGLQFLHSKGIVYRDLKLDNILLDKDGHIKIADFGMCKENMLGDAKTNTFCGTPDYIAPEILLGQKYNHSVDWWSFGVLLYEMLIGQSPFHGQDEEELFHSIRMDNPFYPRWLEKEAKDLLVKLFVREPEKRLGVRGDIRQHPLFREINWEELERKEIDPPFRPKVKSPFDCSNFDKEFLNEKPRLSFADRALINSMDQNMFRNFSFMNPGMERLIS", "test": "Navigating the Kinome. Panel member name: PRKCQ", "assay_type": "functional"}, "[10]": {"target": "Mitogen-activated protein kinase 9 (Homo sapiens, UniProt P45984)", "sequence (P45984 whole entry)": "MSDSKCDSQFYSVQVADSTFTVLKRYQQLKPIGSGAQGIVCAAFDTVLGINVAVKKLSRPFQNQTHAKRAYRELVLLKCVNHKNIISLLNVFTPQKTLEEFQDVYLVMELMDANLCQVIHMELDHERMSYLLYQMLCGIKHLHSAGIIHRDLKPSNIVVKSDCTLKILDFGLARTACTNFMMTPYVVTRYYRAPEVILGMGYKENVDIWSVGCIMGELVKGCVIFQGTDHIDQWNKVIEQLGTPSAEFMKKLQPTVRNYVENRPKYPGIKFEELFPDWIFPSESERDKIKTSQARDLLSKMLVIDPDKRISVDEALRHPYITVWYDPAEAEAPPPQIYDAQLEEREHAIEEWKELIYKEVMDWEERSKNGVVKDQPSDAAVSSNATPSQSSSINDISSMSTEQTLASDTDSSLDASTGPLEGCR", "assay_type": "functional"}, "[11]": {"target": "Death-associated protein kinase 3 (Homo sapiens, UniProt O43293)", "sequence (O43293 whole entry)": "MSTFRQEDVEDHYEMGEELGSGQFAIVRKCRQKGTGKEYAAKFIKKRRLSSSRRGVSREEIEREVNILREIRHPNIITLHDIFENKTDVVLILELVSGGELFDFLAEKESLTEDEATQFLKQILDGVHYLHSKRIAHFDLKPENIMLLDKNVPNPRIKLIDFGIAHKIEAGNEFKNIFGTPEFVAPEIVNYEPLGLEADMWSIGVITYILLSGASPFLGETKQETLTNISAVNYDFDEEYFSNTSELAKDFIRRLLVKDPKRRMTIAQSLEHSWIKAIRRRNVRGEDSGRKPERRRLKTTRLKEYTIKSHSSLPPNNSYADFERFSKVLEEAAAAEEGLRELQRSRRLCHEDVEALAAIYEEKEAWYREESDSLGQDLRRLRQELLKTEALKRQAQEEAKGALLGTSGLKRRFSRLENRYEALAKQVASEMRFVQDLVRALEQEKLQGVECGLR", "assay_type": "functional"}, "[12]": {"target": "Cyclin-dependent kinase 8 (Homo sapiens, UniProt P49336)", "sequence (P49336 whole entry)": "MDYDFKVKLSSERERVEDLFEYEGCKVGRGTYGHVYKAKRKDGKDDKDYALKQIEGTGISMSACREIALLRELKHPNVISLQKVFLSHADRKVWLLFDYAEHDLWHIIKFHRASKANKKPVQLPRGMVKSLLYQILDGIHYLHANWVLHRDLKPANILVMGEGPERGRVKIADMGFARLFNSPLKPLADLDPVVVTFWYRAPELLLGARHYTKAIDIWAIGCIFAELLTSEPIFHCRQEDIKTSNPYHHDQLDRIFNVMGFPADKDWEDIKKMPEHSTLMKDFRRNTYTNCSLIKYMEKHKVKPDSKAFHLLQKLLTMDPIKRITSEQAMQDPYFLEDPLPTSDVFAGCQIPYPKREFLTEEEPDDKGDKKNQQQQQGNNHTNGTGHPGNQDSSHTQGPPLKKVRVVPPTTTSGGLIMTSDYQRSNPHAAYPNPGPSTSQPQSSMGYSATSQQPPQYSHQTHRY", "test": "Navigating the Kinome. Panel member name: CDK8", "assay_type": "functional"}, "[13]": {"target": "High affinity nerve growth factor receptor (Homo sapiens, UniProt P04629)", "assay_type": "functional"}, "[14]": {"target": "Receptor-type tyrosine-protein kinase FLT3 (Homo sapiens, UniProt P36888)", "sequence (P36888 whole entry)": "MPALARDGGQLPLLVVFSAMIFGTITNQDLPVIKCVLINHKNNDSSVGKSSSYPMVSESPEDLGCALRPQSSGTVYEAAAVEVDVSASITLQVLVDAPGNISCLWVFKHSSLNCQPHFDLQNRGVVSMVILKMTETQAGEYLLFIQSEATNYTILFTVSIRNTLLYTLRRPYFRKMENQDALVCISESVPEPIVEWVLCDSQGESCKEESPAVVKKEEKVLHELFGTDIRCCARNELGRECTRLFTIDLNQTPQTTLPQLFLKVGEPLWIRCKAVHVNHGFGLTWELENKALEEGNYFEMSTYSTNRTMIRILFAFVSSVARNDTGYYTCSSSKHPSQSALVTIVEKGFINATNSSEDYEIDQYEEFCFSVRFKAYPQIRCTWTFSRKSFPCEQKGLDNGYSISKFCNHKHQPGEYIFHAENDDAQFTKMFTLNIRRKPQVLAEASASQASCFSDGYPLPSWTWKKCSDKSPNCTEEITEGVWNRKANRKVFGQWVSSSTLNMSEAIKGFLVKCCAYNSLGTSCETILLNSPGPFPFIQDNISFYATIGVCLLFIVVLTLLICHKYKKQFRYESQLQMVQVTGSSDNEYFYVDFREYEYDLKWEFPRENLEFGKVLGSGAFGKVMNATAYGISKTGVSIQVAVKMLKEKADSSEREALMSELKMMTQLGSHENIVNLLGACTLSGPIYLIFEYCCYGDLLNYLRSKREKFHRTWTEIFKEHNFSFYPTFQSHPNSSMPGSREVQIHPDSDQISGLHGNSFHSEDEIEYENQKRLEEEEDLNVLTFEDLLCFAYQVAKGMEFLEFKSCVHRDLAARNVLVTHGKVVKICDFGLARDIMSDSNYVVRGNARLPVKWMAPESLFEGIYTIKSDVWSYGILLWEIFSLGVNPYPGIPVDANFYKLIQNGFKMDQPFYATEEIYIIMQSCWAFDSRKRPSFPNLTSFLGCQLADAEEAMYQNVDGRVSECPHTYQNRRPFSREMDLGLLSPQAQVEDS", "assay_type": "functional"}, "[15]": {"target": "Leukocyte tyrosine kinase receptor (Homo sapiens, UniProt P29376)", "sequence (P29376 whole entry)": "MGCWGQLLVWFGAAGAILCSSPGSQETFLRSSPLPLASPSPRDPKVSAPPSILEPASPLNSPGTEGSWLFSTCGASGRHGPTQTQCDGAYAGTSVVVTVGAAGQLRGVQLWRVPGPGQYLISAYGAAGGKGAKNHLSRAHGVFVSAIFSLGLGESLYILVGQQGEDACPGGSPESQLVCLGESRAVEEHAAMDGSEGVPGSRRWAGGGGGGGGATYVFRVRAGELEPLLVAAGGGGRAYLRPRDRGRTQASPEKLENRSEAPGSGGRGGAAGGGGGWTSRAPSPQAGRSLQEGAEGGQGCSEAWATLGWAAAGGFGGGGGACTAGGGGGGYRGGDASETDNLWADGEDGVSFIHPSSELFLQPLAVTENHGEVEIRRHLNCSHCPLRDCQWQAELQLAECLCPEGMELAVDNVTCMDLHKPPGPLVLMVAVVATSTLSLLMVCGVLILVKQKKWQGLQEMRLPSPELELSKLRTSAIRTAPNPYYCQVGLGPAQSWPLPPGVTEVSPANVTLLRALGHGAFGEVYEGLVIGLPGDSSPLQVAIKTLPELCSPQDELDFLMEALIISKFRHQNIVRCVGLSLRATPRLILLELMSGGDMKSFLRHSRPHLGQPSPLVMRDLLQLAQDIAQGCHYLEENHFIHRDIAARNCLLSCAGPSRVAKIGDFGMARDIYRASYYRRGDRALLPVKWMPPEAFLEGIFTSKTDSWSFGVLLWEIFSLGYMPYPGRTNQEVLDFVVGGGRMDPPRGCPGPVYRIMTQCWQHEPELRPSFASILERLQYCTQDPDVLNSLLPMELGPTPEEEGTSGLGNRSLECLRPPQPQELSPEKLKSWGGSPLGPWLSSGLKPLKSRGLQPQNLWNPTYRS", "test": "Navigating the Kinome. Panel member name: LTK", "assay_type": "functional"}, "[16]": {"target": "BDNF/NT-3 growth factors receptor (Homo sapiens, UniProt Q16620)", "sequence (Q16620 whole entry)": "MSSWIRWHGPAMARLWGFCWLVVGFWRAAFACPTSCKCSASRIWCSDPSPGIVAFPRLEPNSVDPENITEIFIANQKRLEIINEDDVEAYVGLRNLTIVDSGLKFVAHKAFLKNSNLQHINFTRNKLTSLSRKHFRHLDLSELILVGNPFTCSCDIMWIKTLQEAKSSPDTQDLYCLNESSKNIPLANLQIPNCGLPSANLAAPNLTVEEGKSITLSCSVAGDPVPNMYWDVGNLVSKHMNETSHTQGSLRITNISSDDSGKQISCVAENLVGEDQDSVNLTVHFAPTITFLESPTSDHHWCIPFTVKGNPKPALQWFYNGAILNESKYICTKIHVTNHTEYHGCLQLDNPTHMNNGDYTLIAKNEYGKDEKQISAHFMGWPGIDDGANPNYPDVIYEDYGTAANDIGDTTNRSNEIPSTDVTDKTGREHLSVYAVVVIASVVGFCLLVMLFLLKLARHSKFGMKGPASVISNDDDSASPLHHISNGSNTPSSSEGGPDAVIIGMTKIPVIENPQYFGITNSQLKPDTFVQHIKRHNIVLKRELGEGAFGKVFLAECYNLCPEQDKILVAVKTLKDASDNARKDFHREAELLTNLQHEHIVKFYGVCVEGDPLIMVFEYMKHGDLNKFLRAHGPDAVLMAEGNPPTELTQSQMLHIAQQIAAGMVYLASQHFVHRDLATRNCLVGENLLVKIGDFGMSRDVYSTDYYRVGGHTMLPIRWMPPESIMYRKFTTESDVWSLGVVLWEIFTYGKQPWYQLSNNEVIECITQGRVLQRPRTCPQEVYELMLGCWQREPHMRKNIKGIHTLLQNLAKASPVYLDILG", "assay_type": "functional"}}, "note": "Calls of active or inactive are those of the source."}
{"compound": "O=C(NC1=C(NC2CCS(=O)(=O)C2)C(=O)c2ccccc2C1=O)c1ccccc1", "note": "(centres undefined);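 for CC50: cells exposed to compound for 72 hours before luminescence readout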", "values": [{"measurement": "AC50", "setting": "[1]", "value": "0.816 µM (active)"}, {"measurement": "CC50", "setting": "[2]", "value": "5.15 µM (active)"}, {"measurement": "AC50", "setting": "Paired box protein Pax-8", "value": "6.4 µM (active)"}, {"measurement": "IC50", "setting": "Hexokinase HKDC1", "value": "5.14 µM (active)"}]}
{"compound": "CCCC(=O)NC(c1ccc(N(C)C)cc1)c1ccc2cccnc2c1O", "note": "(centres undefined)", "values": [{"measurement": "EC50", "setting": "[3]", "value": "0.48 µM (active)"}, {"measurement": "EC50", "setting": "[4]", "value": "22.9 µM (inconclusive)"}, {"measurement": "AC50", "setting": "[5]", "value": "2.09 µM (active)"}, {"measurement": "IC50", "setting": "[6]", "value": "> 119 µM (inactive)"}, {"measurement": "IC50", "setting": "Nonstructural protein 1", "value": "17.7 µM (active)"}]}
{"compound": "O=C1NC(=O)C(c2c[nH]c3ccccc23)=C1c1nc(N2CCNCC2)nc2ccccc12", "values": [{"measurement": "Ki", "setting": "[7]", "value": "> 2 µM (inactive)"}, {"measurement": "Ki", "setting": "[8]", "value": "> 3.16 µM (inactive)"}, {"measurement": "Ki", "setting": "[9]", "value": "0.000316 µM (active)"}, {"measurement": "Ki", "setting": "[10]", "value": "> 3.98 µM (inactive)"}, {"measurement": "Ki", "setting": "[11]", "value": "0.631 µM (active)"}, {"measurement": "Ki", "setting": "[12]", "value": "> 3.98 µM (inactive)"}, {"measurement": "Ki", "setting": "[13]", "value": "2.51 µM (active)"}, {"measurement": "Ki", "setting": "[14]", "value": "> 3.16 µM (inactive)"}, {"measurement": "Ki", "setting": "[15]", "value": "0.794 µM (active)"}, {"measurement": "Ki", "setting": "[16]", "value": "> 3.98 µM (inactive)"}]}
